Patent US11571413B2, “Nicotinamide riboside treatments of domesticated meat animals” (Kansas State University Research Foundation, priority 2017, dated 2023)

Legend:
finishing barrows [1] = experiment: Finishing pig growth performance (Example IV); assay type: in vivo
Procedure: (§1) Seven days prior to the beginning of the experiment, 10 finishing barrows (initial BW 111.9±1.6 kg) were assigned to individual pens located at the East Finisher facility of the Kansas State University Swine Teaching and Research Center (Manhattan, Kans.). Each pen was 7.4 m^2 with a slatted floor, contained a nipple waterer and an individual dry feeder that allowed ad libitum access to food and water. Barrows were randomly assigned to 1 of 2 NR treatments, 0 or 30 mg/kg daily of NR mixed in Karo® syrup and administered by oral gavage. Barrows were administered their assigned treatment for 10 days, after which they were harvested under USDA inspection. Twenty-four hours after harvest, carcass measurements were taken by trained personnel, carcasses were fabricated into the 5 major wholesale cuts, and whole-boneless loins were vacuum packaged and aged for 10 days. Loin were cut into 3 chops with chop 1 being used for day-0 metmyoglobin reducing ability (MRA) analysis, chop 2 being used for day-4 MRA and oxygen consumption rate (OCR) analyses, and chop 3 for 8-day objective/subjective color evaluation and MRA and OCR analyses.

finishing barrows [2] = experiment: Loin chop color stability, 8-day simulated retail display (Example IV); assay type: in vivo, pig; conditions: NR 30 mg/kg, 10 days
Procedure: as §1, with “analyses. There were no Treatment×Day interactions for all objective and subjective color measurements (P>0.77). Day of display affected all measures consistent with the discoloration of meat (P<0.02), except L* (lightness; 0=black and 100=white) value which was not affected (P=0.14; Table 5).” for “analyses.”

[3] = tested on: Fertilized Cobb 500 broiler eggs; experiment: Pectoralis major succinate dehydrogenase staining intensity (second Example VI); assay type: in vivo, chicken; conditions: 250, 500 or 1,000 mM NR; hatched chicks
Procedure: The methods of Noel et al. (2016) were followed for succinate dehydrogenase (SDH) staining. Slides were incubated at 37° C. for 1 h in a prewarmed incubation solution containing nitro blue tetrazolium solution, phosphate buffer, and sodium succinate solution. After washing in ultrapure water 3 times for 1 min each, 5 μL of 9:1 glycerol in PBS was placed on each cryosection and they were coverslipped for imaging. All cryosections were imaged at 200× magnification using a Nikon Eclipse TI-U inverted microscope (Nikon Instruments Inc., Melville, N.Y.). Immunohistochemistry photomicrographs were collected with a DS-QiMC digital camera (Nikon Instruments Inc.) and SDH cryosections were collected with a Nikon DS-Fil color digital camera (Nikon Instruments Inc.) White light intensity was kept constant for SDH photomicrographs. All photomicrograph collection and image analyses were conducted using NIS Elements Basic Software (Nikon Instruments Inc.). Cross-sectional area (CSA) of a minimum of 1,000 muscle fibers per chick was determined as the area within the dystrophin border. The number of satellite cell was determined as nuclei co-staining for Pax 7 and Hoechst dye located at the periphery of muscle fiber. A minimum of 50 muscle fiber bundles per chick were analyzed for SDH mean intensity using the same software. […]

[4] = tested on: Fertilized Cobb 500 broiler eggs; experiment: Pectoralis major NAD+ quantification, NAD/NADH assay kit (second Example VI); assay type: in vivo, chicken; conditions: hatched chicks
Procedure: Nicotinamide adenine dinucleotide content of the right PMM was quantified using a commercial NAD/NADH assay kit (Abnova, Taipei, Taiwan). Twenty-milligram of PMM tissue was homogenized in a propriety NAD extraction buffer, heated at 60° C. for 5 min, and propriety assay and NADH buffers were added. Samples were centrifuged at 14,000 rpm for 5 min and the supernatant was used for analysis. Standards, samples, and working reagent [propriety assay buffer, enzymes, lactate, and 3-(4,5-dimethylthiazol-2-yl)-2,5-diphenyltetrazolium bromide] were loaded onto 96-well plates and absorbance was read at 565 nm at 0 and 15 min. The change in absorbance was used to calculate amount of NAD+.

[5] = d 0 to 17, NR 30 mg/kg daily d 7 to 17
[6] = 8-day display, treatment effect not significant (P>0.19)

`NC(=O)c1ccc[n+]([C@@H]2O[C@H](CO)[C@@H](O)[C@H]2O)c1` [Nicotinamide riboside, nicotinamide riboside] was tested, and the “Increase of average daily gain (numerical)” value (finishing barrows [1]; 30 mg/kg daily oral gavage over 10 days) was 8%, the Body weight (finishing barrows [1]; d 0 (NR 30 mg/kg given d 7 to 17; before treatment)) was 112.0 kg and the Average daily gain (finishing barrows [1]; d 0 to 7 (before NR treatment)) was 0.7 kg. For the same molecule, the “Average daily feed intake” value (finishing barrows [1]; [5]) was 3.8 kg, the Average daily gain (finishing barrows [1]; [5]) was 1.1 kg and the “Feed to gain ratio” value (finishing barrows [1]; [5]) was 3.42. For the same molecule, the Body weight (finishing barrows [1]; d 7 (start of NR 30 mg/kg, d 7 to 17)) was 117.0 kg, the Average daily gain (finishing barrows [1]; d 7 to 17, NR 30 mg/kg daily) was 1.43 kg and the Body weight (finishing barrows [1]; d 17, NR 30 mg/kg daily d 7 to 17) was 131.3 kg. The “Metmyoglobin reducing ability (MRA) vs control” value (finishing barrows [2]; [6]) was “greater”, the “Oxygen consumption rate (OCR) vs control” value (finishing barrows [2]; [6]) was “greater” and the “Loin chop L* (0 = black and 100 = white)” value (finishing barrows [2]; display day 0) was 64.4. The “Loin chop a* (−60 = green and 60 = red)” value (finishing barrows [2]; display day 0) was 19.7, the “Loin chop L* (0 = black and 100 = white)” value (finishing barrows [2]; display day 1) was 65.2 and the “Loin chop a* (−60 = green and 60 = red)” value (finishing barrows [2]; display day 1) was 18.8. The “Loin chop L* (0 = black and 100 = white)” value (finishing barrows [2]; display day 2) was 63.7, the “Loin chop a* (−60 = green and 60 = red)” value (finishing barrows [2]; display day 2) was 18.6 and the “Loin chop L* (0 = black and 100 = white)” value (finishing barrows [2]; display day 3) was 63.4. The “Loin chop a* (−60 = green and 60 = red)” value (finishing barrows [2]; display day 3) was 17.8, the “Loin chop L* (0 = black and 100 = white)” value (finishing barrows [2]; display day 4) was 63.1 and the “Loin chop a* (−60 = green and 60 = red)” value (finishing barrows [2]; display day 4) was 17.3. The “Loin chop L* (0 = black and 100 = white)” value (finishing barrows [2]; display day 5) was 62.9, the “Loin chop a* (−60 = green and 60 = red)” value (finishing barrows [2]; display day 5) was 16.3 and the “Loin chop L* (0 = black and 100 = white)” value (finishing barrows [2]; display day 6) was 62.7. For the same molecule, the “Loin chop a* (−60 = green and 60 = red)” value (finishing barrows [2]; display day 6) was 15.6, the “Loin chop L* (0 = black and 100 = white)” value (finishing barrows [2]; display day 7) was 62.8 and the “Loin chop a* (−60 = green and 60 = red)” value (finishing barrows [2]; display day 7) was 15.1. For the same molecule, the “Loin chop L* (0 = black and 100 = white)” value (finishing barrows [2]; display day 8) was 62.8, the “Loin chop a* (−60 = green and 60 = red)” value (finishing barrows [2]; display day 8) was 14.7 and the “Trained panelists loin chop discoloration vs control” value (finishing barrows [2]; entire 8-day display period) was “less discoloration”. The “Loin chop surface metmyoglobin vs control” value (finishing barrows [2]; over the 8-day display period) was “less surface metmyoglobin formation”, the “Loin chop surface oxymyoglobin vs control” value (finishing barrows [2]; over the 8-day display period) was “greater surface oxymyoglobin” and the SDH staining intensity [3] was “no treatment effect”. For the same molecule, the “NAD+ content of PMM vs the other 3 treatment groups” value ([4]; 1,000 mM NR) was “more NAD^+” and the “NAD+ content of PMM among 0, 250 and 500 mM groups” value ([4]; 250 and 500 mM NR) was “did not differ”.
